Laboratory results: PubChem BioAssay (NCI)
Values joined by “and” are separate entries in the source; they are usually repeats but may differ in a detail not shown here. Equal entries are not always repeated.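 Growth conditions: 96-well plates. Treatment: test compound, 48 hours, 5 concentrations. Analysis: linear interpolation between bracketing concentrations; unreached endpoints set to highest concentration. GI50 marks 50% less growth. Definition used: TGI = concentration required for complete inhibition of growth.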

Legend:
Experiment in all cases: inhibition of tumour cell growth, NCI panel, 48 h
A549 NSCLC = tested on: A549 NSCLC
ACHN renal = tested on: ACHN renal
CAKI-1 renal = tested on: CAKI-1 renal
MCF7 breast = tested on: MCF7 breast
MOLT-4 leukemia = tested on: MOLT-4 leukemia
NCI/ADR-RES ovarian = tested on: NCI/ADR-RES ovarian
OVCAR-3 ovarian = tested on: OVCAR-3 ovarian
SF-268 CNS = tested on: SF-268 CNS
SW-620 colon = tested on: SW-620 colon
T-47D breast = tested on: T-47D breast

| SMILES | TGI (A549 NSCLC) | TGI (ACHN renal) | TGI (CAKI-1 renal) | TGI (MCF7 breast) | TGI (MOLT-4 leukemia) | TGI (NCI/ADR-RES ovarian) | TGI (OVCAR-3 ovarian) | TGI (SF-268 CNS) | TGI (SW-620 colon) | TGI (T-47D breast) | GI50 (A549 NSCLC) | GI50 (ACHN renal) | GI50 (CAKI-1 renal) | GI50 (MCF7 breast) [nM] | GI50 (MOLT-4 leukemia) [µM] | GI50 (NCI/ADR-RES ovarian) [µM] | GI50 (OVCAR-3 ovarian) | GI50 (SF-268 CNS) [µM] | GI50 (SW-620 colon) [µM] | GI50 (T-47D breast) [µM] |
| --- | --- | --- | --- | --- | --- | --- | --- | --- | --- | --- | --- | --- | --- | --- | --- | --- | --- | --- | --- | --- |
| COC(c1ccc(C(C)(C)C)cc1)(c1ccc(C(C)(C)C)cc1)c1ccc(C(C)(C)C)cc1 | > 100 µM | > 100 µM | > 100 µM | > 100 µM | > 100 µM | > 100 µM | > 100 µM | > 100 µM | > 100 µM | > 100 µM |  |  |  |  |  |  |  |  |  |  |
| CC(C)(C)[Si](C)(C)OC1[C@@H](CNC(=O)NC(=O)CCl)O[C@@H](n2cnc3c(N)ncnc32)[C@H]1O[Si](C)(C)C(C)(C)C (some centres undefined) | 7.72 µM | 1.11 µM | 3.89 µM | 1.51 µM | 1.73 µM | 3.11 µM | 1.94 µM | 2.09 µM | 1.77 µM | 2.13 µM | 2.1 µM | 0.462 µM | 1.33 µM | 724 | 0.53 | 1.18 | 1.02 µM | 1.06 | 0.891 | 1.03 |
| CCN(CC)CCCCCCNc1cccc2cc(Br)cnc12 | 22.6 µM | 17.1 µM | 12.4 µM | 11.2 µM | 12.1 µM | 20.3 µM | 24.8 µM | 27.5 µM | 14.7 µM | 20 µM | 8.07 µM | 4.98 µM | 2.83 µM | 3020 | 3.06 | 4.88 | 8.63 µM | 10.9 | 3.41 | 5.31 |
| CCCC/C(=C\C1=C(C)C(=O)C(OC)=C(OC)C1=O)C(=O)O | > 100 µM | > 100 µM | > 100 µM | > 100 µM | > 100 µM | > 100 µM | > 100 µM | > 100 µM | > 100 µM | 94.3 µM | > 100 µM | > 100 µM | > 100 µM | > 100000 | 6.54 | > 100 | > 100 µM | > 100 | > 100 | 33.2 |
| CC(C)[C@H](O)C(=O)N[C@@H](C)C(=O)N[C@@H]1C(=O)N(C)CCc2ccccc21 | > 100 µM | > 100 µM | > 100 µM | > 100 µM | > 100 µM | > 100 µM | > 100 µM | > 100 µM | > 100 µM | > 100 µM | > 100 µM | > 100 µM | > 100 µM | > 100000 | > 100 | > 100 | > 100 µM | > 100 | > 100 | > 100 |
| CC(C)CC(C/C=C1/CC(CO)(COC(=O)C(C)(C)C)OC1=O)CC(C)C (centres undefined) | 16.1 µM and 11.2 µM | 24.1 µM and 21.3 µM | 21.5 µM and 9.68 µM | 34.2 µM and 40.3 µM | 23.6 µM and > 41.6 µM | 35.3 µM and 29.7 µM | 36.6 µM and 18.8 µM | 26.4 µM and 25.4 µM | 19.4 µM and 22 µM | 40.5 µM and 23.9 µM | 1.07 µM and 0.515 µM | 11.4 µM and 5.25 µM | 7.62 µM and 1.19 µM |  |  |  | 14.9 µM and 5.32 µM |  |  |  |
| COc1ccc(C(CC(=O)c2ccc3c(c2)OCO3)c2c(O)c3ccccc3oc2=O)cc1OC (centres undefined) | > 100 µM | > 100 µM | > 100 µM | > 100 µM | > 100 µM | > 100 µM | > 100 µM | > 100 µM | > 100 µM | > 100 µM |  |  |  |  |  |  |  |  |  |  |
| COC(=O)c1cc2c(o1)-c1nccc3c1c(nc1ccccc13)C2=O | 21.1 µM | 14.7 µM | 32.3 µM | 15.6 µM | 7.28 µM | 5.68 µM | 4.37 µM | 24.2 µM | 17.5 µM | 6.9 µM | 4.66 µM | 2.27 µM | 9.48 µM | 2070 | 2.64 | 2.11 | 1.26 µM | 2.82 | 3.78 | 1.88 |
